From ChEMBL document CHEMBL4190169 (Medchemcomm, 2016)

Key:
[1] = biological target: T1, Prostaglandin G/H synthase 1 (Ovis aries, UniProt P05979); experiment: Inhibition of ovine COX1 using arachidonic acid as substrate incubated for 5 mins followed by substrate addition measured after 2 mins by enzyme immunoassay
T1 sequence (P05979 whole entry): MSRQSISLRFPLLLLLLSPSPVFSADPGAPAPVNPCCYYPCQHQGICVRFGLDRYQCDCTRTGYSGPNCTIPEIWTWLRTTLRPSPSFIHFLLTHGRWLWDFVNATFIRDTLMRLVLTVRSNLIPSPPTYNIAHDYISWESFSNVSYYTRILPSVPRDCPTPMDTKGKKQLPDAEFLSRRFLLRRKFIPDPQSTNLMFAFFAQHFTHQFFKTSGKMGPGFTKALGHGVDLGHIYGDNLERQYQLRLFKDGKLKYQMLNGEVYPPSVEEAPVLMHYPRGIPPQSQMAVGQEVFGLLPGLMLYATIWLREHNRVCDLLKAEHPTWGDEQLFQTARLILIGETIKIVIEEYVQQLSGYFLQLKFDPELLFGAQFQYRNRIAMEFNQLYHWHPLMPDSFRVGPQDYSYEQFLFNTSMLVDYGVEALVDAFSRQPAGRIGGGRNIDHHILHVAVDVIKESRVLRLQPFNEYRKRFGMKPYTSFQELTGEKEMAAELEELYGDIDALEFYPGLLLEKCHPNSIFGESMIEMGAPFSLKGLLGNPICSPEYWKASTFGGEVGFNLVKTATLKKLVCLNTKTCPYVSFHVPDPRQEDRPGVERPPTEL

Rattus norvegicus [2] = experiment: Ulcerogenic activity in Wistar rat assessed as appearance of ulcers and erosions in stomach by measuring ulcer index at 100 mg/kg, po measured after 4 hrs; format: toxicity, organism-based; details: in vivo
Rattus norvegicus [3] = experiment: Analgesic activity in gamma-irradiated carrageenan-induced Wistar rat hyperalgesia model assessed as nociceptive threshold at 100 mg/kg, ip administered 1 hr prior to carrageenan challenge measured after 3 hrs by analgesimetric analysis (reference value: 37.60 +/- 0.79 g); format: functional
Rattus norvegicus [4] = experiment: Antiinflammatory activity in gamma-irradiated carrageenan-induced Wistar rat paw edema model assessed as paw oedema at 100 mg/kg, ip administered 1 hr prior to carrageenan challenge measured after 3 hrs (reference value: 89.5 +/- 1.47%); format: functional
[5] = Acute toxicity in Swiss albino mouse assessed as mortality administered ip measured for 24 hrs; format: organism-based; details: in vivo, read-out: ALD50

| IC50 [1] [µM] | SMILES | UI (Rattus norvegicus [2]) | Activity (Rattus norvegicus [3]) [g] | Activity (Rattus norvegicus [4]) [%] | LD50 at 24 h [5] [mg/kg] |
| --- | --- | --- | --- | --- | --- |
| > 50 | N#CC1=C(N)N=C2SC(=S)NN2C1c1ccc([N+](=O)[O-])cc1 (stereo not given) |  |  |  |  |
| 30.7 | S=C1NN2C(c3ccccc3)=CC(c3ccc(Cl)cc3)N=C2S1 (stereo not given) | 0.6 | 78.51 | 43.1 |  |
| > 50 | N#CC1=C(N)N=C2SC(=S)NN2C1c1ccc(Cl)cc1 (stereo not given) |  |  |  |  |
| > 50 | COc1ccc(C2C(C#N)=C(N)N=C3SC(=S)NN32)cc1 (stereo not given) |  |  |  |  |
| > 50 | Cc1ccc(C2SCC(=O)N2c2n[nH]c(=S)s2)cc1 (stereo not given) |  |  |  |  |
| > 50 | S=C1NN2C(c3ccccc3)=CC(c3ccccc3Cl)N=C2S1 (stereo not given) |  |  |  |  |
| > 50 | CN(C)c1ccc(C2C=C(c3ccccc3)N3NC(=S)SC3=N2)cc1 (stereo not given) |  |  |  |  |
| > 50 | CN(C)c1ccc(C2C(C#N)=C(N)N=C3SC(=S)NN32)cc1 (stereo not given) | 0 | 53.88 | 43.7 |  |
| > 50 | O=C1CSC(c2ccc(Cl)cc2)N1c1n[nH]c(=S)s1 (stereo not given) |  |  |  |  |
| > 50 | S=C1NN2C(c3ccccc3)=CC(c3ccc(Br)cc3)N=C2S1 (stereo not given) |  |  |  |  |
| > 50 | N#CC1=C(N)N=C2SC(=S)NN2C1c1ccc(Br)cc1 (stereo not given) | 0.05 | 60.51 | 31.3 |  |
| 1.34 | COc1ccc(C2C=C(c3ccccc3)N3NC(=S)SC3=N2)cc1 (stereo not given) | 0.64 | 66.6 | 43.6 |  |
| > 50 | N#CC1=C(N)N=C2SC(=S)NN2C1c1ccccc1 (stereo not given) |  |  |  |  |

Further lines, the compound ahead of its results:

| SMILES | IC50 [1] [µM] | UI (Rattus norvegicus [2]) | Activity (Rattus norvegicus [3]) [g] | Activity (Rattus norvegicus [4]) [%] | LD50 at 24 h [5] [mg/kg] |
| --- | --- | --- | --- | --- | --- |
| Nc1nnc(S)s1 | > 50 |  |  |  |  |
| Cc1ccc(/C=N/C2=NN3C(=O)CSC3S2)cc1 (stereo not given) | > 50 |  |  |  |  |
| O=S(=O)(Nc1ncccn1)c1ccc(NCNc2n[nH]c(=S)s2)cc1 | > 50 |  |  |  |  |
| COc1ccc(C2SCC(=O)N2c2n[nH]c(=S)s2)cc1 (stereo not given) | 24 | 0.26 | 62.37 | 31.5 |  |
| O=C1CSC2SC(/N=C/c3ccc(Br)cc3)=NN12 (stereo not given) | > 50 | 0 | 44.91 | 50.49 |  |
| S=c1[nH]nc(/N=C/c2ccc(Cl)cc2)s1 | > 50 |  |  |  |  |
| O=S(=O)(Nc1ccccn1)c1ccc(NCNc2n[nH]c(=S)s2)cc1 | > 50 |  |  |  |  |
| COc1ccc(/C=N/c2n[nH]c(=S)s2)cc1 | 41.7 | 0.38 | 56.3 | 41.53 |  |
| O=S(=O)(Nc1nccs1)c1ccc(NCNc2n[nH]c(=S)s2)cc1 | > 50 | 0 | 90.21 | 24.6 | > 1000 |
| N=c1cc(Nc2ccc(S(N)(=O)=O)cc2)n2[nH]c(=S)sc2n1 | > 50 |  |  |  |  |
| N=c1cc(Nc2ccc(S(=O)(=O)Nc3nccs3)cc2)n2[nH]c(=S)sc2n1 | > 50 | 0.05 | 76.51 | 25.13 | > 1000 |
| NS(=O)(=O)c1ccc(NCNc2n[nH]c(=S)s2)cc1 | > 50 |  |  |  |  |
| S=c1[nH]nc(/N=C/c2ccc(Br)cc2)s1 | > 50 | 0 | 95.6 | 45.62 |  |
| N=c1cc(Nc2ccc(S(=O)(=O)Nc3ccccn3)cc2)n2[nH]c(=S)sc2n1 | > 50 | 0.05 | 85.8 | 24.21 | > 800 |
| Cc1ccc(/C=N/c2n[nH]c(=S)s2)cc1 | > 50 |  |  |  |  |
| Cc1ccnc(NS(=O)(=O)c2ccc(NCNc3n[nH]c(=S)s3)cc2)n1 | > 50 | 0.05 | 80.78 | 25.31 | > 800 |
| O=C1CSC(c2ccc(Br)cc2)N1c1n[nH]c(=S)s1 (stereo not given) | 1.32 | 0.45 | 51.51 | 25.07 | > 1000 |
| Cc1cc(C)nc(NS(=O)(=O)c2ccc(NCNc3n[nH]c(=S)s3)cc2)n1 | > 50 |  |  |  |  |
| O=C1CSC2SC(/N=C/c3ccc(Cl)cc3)=NN12 (stereo not given) | > 50 |  |  |  |  |
| COc1ccc(/C=N/C2=NN3C(=O)CSC3S2)cc1 (stereo not given) | > 50 | 0.05 | 54.13 | 15.47 | > 800 |
| N=c1cc(Nc2ccc(S(=O)(=O)Nc3ncccn3)cc2)n2[nH]c(=S)sc2n1 | > 50 |  |  |  |  |
| Cc1ccc(-c2cc(C(F)(F)F)nn2-c2ccc(S(N)(=O)=O)cc2)cc1 [CELECOXIB] |  | 0 | 90.23 | 18.61 |  |
